According to patent publication US20260374766A1, “METHODS FOR TREATING CANCER” (Antares Therapeutics, Inc., priority 2022, published 2026):
Read-outs that look alike come from different tables or passages of the source.

Experiments:
[1] = molecular target: T1, p53 Y220C mutant protein (amino acid residues 94-293) (Homo sapiens, UniProt P04637, Y220C); assay: Surface Plasmon Resonance (SPR) assay, Kd_kinetic; format: binding; conditions: read-out: SPR P53 Y220C KD kinetic
T1 construct: p53 Y220C mutant protein (amino acid residues 94-293)
In short: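 Temperature held at 16 or 20 °C during Biacore 8K runs. Buffer: 50 mM Tris, pH 7.5, 100 mM NaCl, 1 mM DTT, 0.01% Brij35, 0.05% Tween-20, 1% DMSO.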

[2] = molecular target: T1, p53 Y220C mutant protein (amino acid residues 94-293); assay: Thermal Shift Assay (TSA), dTM; format: binding; conditions: for ΔTm at 100 µM: 100 uM compound; for ΔTm at 10 µM: 10 uM compound
In short: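 5 μM p53 Y220C (residues 94-293) incubated 3 h at 20 °C with 10 μM or 100 μM compound in 20 mM HEPES pH 7.4, 100 mM NaCl, 0.01% Pluronic F-127, 1% DMSO plus Sypro Orange. Melt from 30 to 50 °C at 0.03 °C/s; TM from Boltzmann two-state fit.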

[3] = molecular target: p53 Y220C (Homo sapiens, UniProt P04637, Y220C); assay: Luciferase Reporter Assay (Luc), p53 response element, NClH1299 cells with inducible p53 Y220C; format: cell-based; conditions: luciferase reporter, NClH1299 inducible p53 Y220C, 6 hour; for AC50: read-out: Luc P53 Y220C AC50
In short: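 H1299 cells induced with 0.5 ug/mL doxycycline for 24 hours, then exposed to compound for 6 hours. p53 response-element luciferase read by One-Glo luminescence after 5 min shaking at room temperature.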

[4] = system: NUGC3 p53 Y220C; assay: Cell Proliferation Assay (CellTiter-Glo, CTG), NUGC3 p53 Y220C; format: cell-based; conditions: Homo sapiens, NUGC-3, 120 h, CellTiter-Glo, 5 days
In short: (§1)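 NClH1299 lines stably transduced with Tet-inducible p53 Y220C or R273H, plus NUGC3, were treated with compound for 5 days at 250-500 cells/well. IC50 derived from CellTiter-Glo luminescent signal after 10 min room-temperature incubation.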

[5] = system: H1299 p53 Y220C; assay: Cell Proliferation Assay (CellTiter-Glo, CTG), H1299 p53 Y220C (NClH1299-inducible p53 Y220C); format: cell-based; conditions: Homo sapiens, NCI-H1299, 120 h, CellTiter-Glo, 5 days
In short: as §1

[6] = system: H1299 p53 R273H; assay: Cell Proliferation Assay (CellTiter-Glo, CTG), H1299 p53 R273H (NClH1299-inducible p53 R273H); format: cell-based; conditions: Homo sapiens, NCI-H1299, 120 h, CellTiter-Glo, 5 days
In short: as §1

[7] = thermal shift, read-out: TSA P53 Y220C dTM (100 uM)
[8] = 10 uM tool compound as positive control
[9] = p53 Y220C, read-out: TSA P53 Y220C dTM
[10] = NClH1299-inducible p53 Y220C cells
[11] = NClH1299-inducible p53 R273H cells
[12] = thermal shift, read-out: TSA P53 Y220C dTM (10 uM)

Structure (SMILES)	Kd ([1]; SPR, kinetic KD, p53 Y220C)	ΔTm at 100 µM [2, 7]	Emax [3, 8]	AC50 [3]	IC50 ([4]; NUGC3 p53 Y220C)	IC50 ([5]; H1299 p53 Y220C)	IC50 ([6]; H1299 p53 R273H)	Kd ([1]; SPR, p53 Y220C)	ΔTm at 10 µM [2, 9]	AC50 ([3]; AC50)	Emax ([3]; Emax)	IC50 ([4]; NUGC3 cells)	IC50 [5, 10]	IC50 [6, 11]	Kd [1]	ΔTm at 10 µM [2, 12]	ΔTm at 100 µM [2, 9]
CN1CC[C@@H](Nc2cccn3c(CC(F)(F)F)c(C#CCNc4ccc(S(C)(=O)=O)cc4)nc23)[C@@H](F)C1 [Example 76, (3S,4R)-3-fluoro-N-(2-{3-[(4-methanesulfonylphenyl)amino]prop-1-yn-1-yl}-3-(2,2,2-trifluoroethyl)imidazo[1,2-a]pyridin-8-yl)-1-methylpiperidin-4-amine]	< 10 nM	5 to 10 °C	70 to 80%	1500 to 3000 nM	750 to 1500 nM	750 to 1500 nM	≥ 10 µM	–	–	–	–	–	–	–	–	–	–
COc1cc(C(N)=O)ccc1NCC#Cc1nn2c(N[C@@H]3CCN(C)C[C@@H]3F)cccc2c1SC(F)(F)F [Example 233]	–	–	–	–	–	–	–	< 10 nM	≥ 10 °C	< 750 nM	80 to 90%	< 750 nM	< 750 nM	8 to 10 µM	–	–	–
COc1cc(C(=O)N2CCOCC2)ccc1NCC#Cc1nc2c(N[C@@H]3CCN(C)C[C@@H]3F)cccn2c1SC(F)(F)F [Example 119]	–	≥ 10 °C	80 to 90%	< 750 nM	< 750 nM	< 750 nM	≥ 10 µM	–	–	–	–	–	–	–	< 10 nM	≥ 10 °C	–
CNC(=O)c1ccc(NCC#Cc2nc3c(N[C@@H]4CCN(C)C[C@@H]4F)cccn3c2SC(F)(F)F)c(OC)n1 [Example 93, 5-{[3-(8-{[(3S,4R)-3-fluoro-1-methylpiperidin-4-yl]amino}-3-[(trifluoromethyl)sulfanyl]imidazo[1,2-a]pyridin-2-yl)prop-2-yn-1-yl]amino}-6-methoxy-N-methylpyridine-2-carboxamide]	< 10 nM	≥ 10 °C	> 90%	< 750 nM	< 750 nM	< 750 nM	5 to 8 µM	–	–	–	–	–	–	–	–	–	–
CNC(=O)c1ccc(NCC#Cc2nc3c(NC4CCN(C)CC4)cc(N)cn3c2CC(F)(F)F)c(OC)c1 [Example 40, 4-[(3-{6-amino-8-[(1-methylpiperidin-4-yl)amino]-3-(2,2,2-trifluoroethyl)imidazo[1,2-a]pyridin-2-yl}prop-2-yn-1-yl)amino]-3-methoxy-N-methylbenzamide]	10 to 100 nM	5 to 10 °C	< 70%	> 3000 nM	> 3000 nM	> 3000 nM	≥ 10 µM	–	–	–	–	–	–	–	–	–	–
C[C@H](O)C#Cc1nc2c(N[C@@H]3CCN(C)C[C@@H]3F)cccn2c1CC(F)(F)F [Example 71, (2S)-4-(8-{[(3S,4R)-3-fluoro-1-methylpiperidin-4-yl]amino}-3-(2,2,2-trifluoroethyl)imidazo[1,2-a]pyridin-2-yl)but-3-yn-2-ol]	100 to 1000 nM	5 to 10 °C	< 70%	> 3000 nM	> 3000 nM	> 3000 nM	≥ 10 µM	–	–	–	–	–	–	–	–	–	–
CNC(=O)c1ccc(OC)c(NCC#Cc2nn3c(N[C@@H]4C[C@H]5CC[C@H](N5)[C@@H]4F)cccc3c2SC(F)(F)F)c1 [Example 269]	–	–	–	–	–	–	–	< 10 nM	≥ 10 °C	< 750 nM	70 to 80%	< 750 nM	< 750 nM	< 5 µM	–	–	5 to 10 °C
COc1cc(S(C)(=O)=O)ccc1NCC#Cc1nc2c(NC3CC4(C3)CN(C)C4)cccn2c1CC(F)(F)F [Example 114, N-(2-{3-[(4-methanesulfonyl-2-methoxyphenyl)amino]prop-1-yn-1-yl}-3-(2,2,2-trifluoroethyl)imidazo[1,2-a]pyridin-8-yl)-2-methyl-2-azaspiro[3.3]heptan-6-amine]	10 to 100 nM	≥ 10 °C	70 to 80%	> 3000 nM	1500 to 3000 nM	> 3000 nM	5 to 8 µM	–	–	–	–	–	–	–	–	–	–
CNC(=O)c1ccc(F)c(NCC#Cc2nc3c(N[C@@H]4CCN(C)C[C@@H]4F)cccn3c2SC(F)(F)F)c1 [Example 159]	< 10 nM	–	> 90%	< 750 nM	< 750 nM	< 750 nM	≥ 10 µM	–	–	–	–	–	–	–	–	≥ 10 °C	–
CC#Cc1nn2c(N[C@@H]3CCN(C)C[C@@H]3F)cccc2c1CC(F)(F)F [Example 20, (3S,4R)-3-fluoro-1-methyl-N-[2-(prop-1-yn-1-yl)-3-(2,2,2-trifluoroethyl)pyrazolo[1,5-a]pyridin-7-yl]piperidin-4-amine]	10 to 100 nM	5 to 10 °C	< 70%	> 3000 nM	> 3000 nM	> 3000 nM	≥ 10 µM	–	–	–	–	–	–	–	–	–	–
CNC(=O)c1ccc(OC)c(NCC#Cc2cc3c(N[C@@H]4CCNC[C@@H]4F)nccn3c2SC(F)(F)F)c1 [Example 289]	–	–	–	–	–	–	–	< 10 nM	≥ 10 °C	< 750 nM	> 90%	< 750 nM	< 750 nM	5 to 8 µM	–	–	≥ 10 °C
CCc1cc(C(=O)NC)ccc1NCC#Cc1nc2c(N[C@@H]3CCN(C)C[C@@H]3F)cccn2c1CC(F)(F)F [Example 58, 3-ethyl-4-{[3-(8-{[(3S,4R)-3-fluoro-1-methylpiperidin-4-yl]amino}-3-(2,2,2-trifluoroethyl)imidazo[1,2-a]pyridin-2-yl)prop-2-yn-1-yl]amino}-N-methylbenzamide]	< 10 nM	5 to 10 °C	70 to 80%	> 3000 nM	> 3000 nM	> 3000 nM	≥ 10 µM	–	–	–	–	–	–	–	–	–	–
COc1cc(C(=O)NC2CC2)ccc1NCC#Cc1nc2c(N[C@@H]3CCN(C)C[C@@H]3F)cccn2c1CC(F)(F)F [Example 49, N-cyclopropyl-4-{[3-(8-{[(3S,4R)-3-fluoro-1-methylpiperidin-4-yl]amino}-3-(2,2,2-trifluoroethyl)imidazo[1,2-a]pyridin-2-yl)prop-2-yn-1-yl]amino}-3-methoxybenzamide]	10 to 100 nM	≥ 10 °C	70 to 80%	750 to 1500 nM	750 to 1500 nM	750 to 1500 nM	8 to 10 µM	–	–	–	–	–	–	–	–	–	–
COc1cc(S(C)(=O)=O)ccc1NCC#Cc1nc2c(N[C@H]3CCN(C)C[C@H]3F)cccn2c1CC(F)(F)F [Example 6, (3R,4S)-3-fluoro-N-(2-{3-[(4-methanesulfonyl-2-methoxyphenyl)amino]prop-1-yn-1-yl}-3-(2,2,2-trifluoroethyl)imidazo[1,2-a]pyridin-8-yl)-1-methylpiperidin-4-amine]	10 to 100 nM	≥ 10 °C	70 to 80%	1500 to 3000 nM	1500 to 3000 nM	1500 to 3000 nM	≥ 10 µM	–	–	–	–	–	–	–	–	–	–
CCc1c(C#CCNc2ccc(S(C)(=O)=O)cc2OC)nc2c(N[C@@H]3CCN(C)C[C@@H]3F)cccn12 [Example 15, (3S,4R)—N-(3-ethyl-2-{3-[(4-methanesulfonyl-2-methoxyphenyl)amino]prop-1-yn-1-yl}imidazo[1,2-a]pyridin-8-yl)-3-fluoro-1-methylpiperidin-4-amine]	10 to 100 nM	5 to 10 °C	< 70%	1500 to 3000 nM	1500 to 3000 nM	1500 to 3000 nM	8 to 10 µM	–	–	–	–	–	–	–	–	–	–
CNC(=O)c1ccc(NCC#Cc2nc3c(N[C@@H]4CCC(=O)NC4)cccn3c2SC(F)(F)F)c(OC)c1 [Example 182]	10 to 100 nM	5 to 10 °C	80 to 90%	1500 to 3000 nM	1500 to 3000 nM	1500 to 3000 nM	≥ 10 µM	–	–	–	–	–	–	–	–	5 to 10 °C	–
